Some test systems named below: HS 578T breast; OVCAR-8 ovarian; KM12 colon; NCI-H23 lung; SR leukemia; SNB-19 CNS; HT29 colon; UACC-257 melanoma; NCI-H226 lung; A549 NSCLC.
What all share (experiment): NCI anticancer screen, dose series, 48 h

Seven compounds from PubChem BioAssay (NCI) can be followed below.

Where “and” joins values, the source holds several entries; their conditions need not be identical. Identical values can stand only once.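 Test compounds were applied to cells in 96-well plates for 48 hours at 5 doses. Abbreviation: GI50, concentration required for 50% inhibition of growth. The concentration for full growth arrest is given as TGI.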

`CC(C)[C@@H]1C=C2CC[C@H]3[C@](C)(CN)CCC[C@]3(C)[C@H]2CC1`: the GI50 is 4.69 µM with HS 578T breast; 2.28 µM in the assay with OVCAR-8 ovarian; 1.76 µM in the assay with KM12 colon; 1.94 µM in the assay with NCI-H23 lung; 2.78 µM in the assay on SR leukemia; 8.17 µM in the assay with SNB-19 CNS. Moreover, the GI50 in the assay on HT29 colon is 1.84 µM; in the assay with UACC-257 melanoma it was 2.9 µM; in the assay with NCI-H226 lung, 15.2 µM; in the assay with A549 NSCLC, 3.07 µM. In addition, the TGI in the assay with HS 578T breast came to 20.1 µM; with OVCAR-8 ovarian, 5.7 µM; in the assay with KM12 colon, 3.23 µM; in the assay with NCI-H23 lung it was 4.09 µM; with SR leukemia it was 12.4 µM; in the assay on SNB-19 CNS, 21.1 µM. The TGI came out at 3.64 µM with HT29 colon, 9.88 µM in the assay with UACC-257 melanoma, 34.4 µM in the assay on NCI-H226 lung and 11 µM in the assay with A549 NSCLC.
With `COc1ccc(-c2cn[nH]c2-c2cc(OC)c(OC)c(OC)c2)cc1`, the GI50 was 0.0408 µM in the assay with HS 578T breast; 0.05 µM in the assay with OVCAR-8 ovarian; 0.0252 µM in the assay on KM12 colon; 0.044 µM in the assay with NCI-H23 lung; 0.0177 µM in the assay on SR leukemia; 0.0631 µM in the assay with SNB-19 CNS. The GI50 in the assay on HT29 colon is 0.0258 µM; in the assay on UACC-257 melanoma, 0.558 µM; in the assay with NCI-H226 lung it was 0.111 µM; in the assay with A549 NSCLC, 0.0346 µM. In addition, the TGI with HS 578T breast was 22.5 µM; with OVCAR-8 ovarian it was 38.1 µM; in the assay on KM12 colon it was 12 µM; in the assay with NCI-H23 lung it was 30.2 µM; in the assay on SR leukemia it was 13.9 µM; with SNB-19 CNS it was more than 74.9 µM. Further, the TGI in the assay on HT29 colon was 0.336 µM; in the assay with UACC-257 melanoma, more than 49.6 µM; in the assay with NCI-H226 lung, 20.6 µM; with A549 NSCLC, more than 38.7 µM.
With `O=C1NC(=NC(CO)Cc2ccccc2)S/C1=C\c1ccc2ncccc2c1` (stereo not given), the GI50 was 11.3 µM and 7.01 µM with HS 578T breast; > 21.1 µM and 5.24 µM in the assay on OVCAR-8 ovarian; 12.4 µM and 2.25 µM in the assay with KM12 colon; 17.7 µM and 2.23 µM in the assay with NCI-H23 lung; 6.94 µM and 0.888 µM in the assay on SR leukemia; > 25 µM and 4.34 µM in the assay with SNB-19 CNS. Besides, the GI50 with HT29 colon is 16.2 µM and 4.74 µM; in the assay with UACC-257 melanoma, > 25 µM and 5.79 µM; in the assay with NCI-H226 lung, > 25 µM and 5.55 µM; with A549 NSCLC, 16.4 µM and 2.96 µM. The TGI with HS 578T breast was more than 25 µM; in the assay with OVCAR-8 ovarian it was more than 25 µM; in the assay with KM12 colon it was more than 25 µM; in the assay on NCI-H23 lung, more than 25 µM; in the assay on SR leukemia, > 22.6 µM and 5.23 µM; in the assay on SNB-19 CNS, more than 25 µM. The TGI with HT29 colon is more than 25 µM; in the assay on UACC-257 melanoma, > 25 µM and 19 µM; with NCI-H226 lung, more than 25 µM; with A549 NSCLC, more than 25 µM.
Take `O=C(CCCSc1nc(-c2ccccc2)cc(-c2ccccc2)n1)NO`: the GI50 with HS 578T breast is 2.32 µM; in the assay with OVCAR-8 ovarian, 0.484 µM; in the assay with KM12 colon, 2.64 µM; with NCI-H23 lung, 2 µM; in the assay on SR leukemia it was 0.38 µM; with SNB-19 CNS it was 2.67 µM. Moreover, the GI50 in the assay on HT29 colon is 2.46 µM; with UACC-257 melanoma, 1.77 µM; with NCI-H226 lung, 1.19 µM; with A549 NSCLC, 2.63 µM. The TGI stood at 27 µM in the assay on HS 578T breast; 18.3 µM in the assay on OVCAR-8 ovarian; 12.9 µM in the assay with KM12 colon; 6.11 µM in the assay on NCI-H23 lung; 20.5 µM in the assay with SR leukemia; 13.8 µM in the assay on SNB-19 CNS. Besides, the TGI in the assay on HT29 colon came out at 12.2 µM; in the assay with UACC-257 melanoma, 6.71 µM; in the assay on NCI-H226 lung it was 9.28 µM; in the assay on A549 NSCLC, 10.1 µM.
With `Nc1n[nH]c2cccc(C#Cc3cccc(C(=O)Nc4ccc(CN5CCOCC5)c(C(F)(F)F)c4)c3)c12`, the GI50 is 2.19 µM with HS 578T breast; 2.54 µM in the assay on OVCAR-8 ovarian; 2.81 µM in the assay with KM12 colon; 2.1 µM in the assay with NCI-H23 lung; 1.97 µM in the assay on SR leukemia; 3.36 µM with SNB-19 CNS. In addition, the GI50 with HT29 colon is 1.89 µM; in the assay on UACC-257 melanoma, 2.41 µM; with NCI-H226 lung it was 1.14 µM; with A549 NSCLC it was 3.13 µM. Further, the TGI was 8.23 µM in the assay with HS 578T breast; 8.18 µM in the assay with OVCAR-8 ovarian; 9.65 µM in the assay with KM12 colon; 11.3 µM in the assay with NCI-H23 lung; more than 100 µM with SR leukemia; 35.5 µM in the assay on SNB-19 CNS. The TGI was determined as 12.2 µM in the assay on HT29 colon, 10.6 µM with UACC-257 melanoma, 7.81 µM with NCI-H226 lung and 11.3 µM in the assay on A549 NSCLC.
Turning to `COc1ccc2nc3cc(Cl)ccc3c(NCCNCC(C)O)c2c1` (stereo not given), the GI50 in the assay with HS 578T breast was 4.47 µM; in the assay on OVCAR-8 ovarian, 1.94 µM; in the assay with KM12 colon, 2.02 µM; with NCI-H23 lung, 1.93 µM; with SR leukemia it was 1.09 µM; with SNB-19 CNS it was 2.19 µM. In addition, the GI50 with HT29 colon was 0.691 µM; in the assay with UACC-257 melanoma, 2.14 µM; in the assay with NCI-H226 lung it was 2.3 µM; in the assay on A549 NSCLC it was 1.52 µM. Besides, the TGI in the assay with HS 578T breast worked out at 21.3 µM; in the assay on OVCAR-8 ovarian, 7.65 µM; with KM12 colon it was 8.74 µM; in the assay with NCI-H23 lung, 6.16 µM; in the assay on SR leukemia, 8.04 µM; with SNB-19 CNS it was 9.78 µM. The TGI in the assay with HT29 colon is 3.03 µM; in the assay on UACC-257 melanoma it was 3.73 µM; in the assay on NCI-H226 lung it was 6.04 µM; in the assay with A549 NSCLC it was 3.16 µM.
Consider `CC1(COc2ccc3c(c2)ncn3-c2ccc3cccc(N4CCC(N)CC4)c3n2)COC1`, for which the GI50 in the assay with HS 578T breast was 2.08 µM and 0.385 µM; in the assay with OVCAR-8 ovarian, 2.82 µM and 2.84 µM; in the assay on KM12 colon it was 0.0519 µM and 0.118 µM; with NCI-H23 lung, 2.13 µM and 1.94 µM; in the assay with SR leukemia it was 0.769 µM and 0.347 µM; in the assay with SNB-19 CNS it was 4.35 µM and 3.36 µM. In addition, the GI50 was 2.92 µM and 3.29 µM in the assay on HT29 colon; 2.7 µM with UACC-257 melanoma; 3.18 µM and 2.54 µM in the assay with NCI-H226 lung; 1.83 µM and 2.39 µM in the assay with A549 NSCLC. The TGI in the assay with HS 578T breast was 15.3 µM and 4.77 µM; in the assay on OVCAR-8 ovarian, 10.7 µM and > 10 µM; in the assay on KM12 colon it was 5.74 µM and > 10 µM; in the assay with NCI-H23 lung it was 8.59 µM and 5.28 µM; with SR leukemia, 4.7 µM and 2.4 µM; in the assay with SNB-19 CNS, 13.2 µM and > 10 µM. Further, the TGI in the assay with HT29 colon is 7.99 µM and > 10 µM; in the assay with UACC-257 melanoma, 5.36 µM and 5.55 µM; in the assay on NCI-H226 lung, 9.32 µM and > 10 µM; with A549 NSCLC, 4.45 µM and > 10 µM.
